Test results from patent US9834549B2, “3,3-disubstituted-(8-aza-bicyclo[3.2.1]OCT-8-yl)-[5-(1H-pyrazol-4-yl)-thiophen-3-yl]-methanones as inhibitors of 11 (β)-HSD1” (The University Of Edinburgh, priority 2010, dated 2017).
Where two headings read alike, the source gives them in different places.

What was measured:
[1] = target: T1, human 11β-HSD1 (Homo sapiens, UniProt P28845); experiment: Cellular in vitro 11β-HSD1 enzyme inhibition assay (SPA, HEK293/11β-HSD1 cells); format: cell-based; details: HEK293, potency groups, read-out: IC50 for 11β-HSD1 (HEK293)
T1 construct: stably transfected with a construct containing the full-length gene coding for the human 11β-HSD1 enzyme; expressed in transfected cells; host or cells: HEK293 (stably transfected, HEK293/11β-HSD1)
T1 sequence (P28845 whole entry): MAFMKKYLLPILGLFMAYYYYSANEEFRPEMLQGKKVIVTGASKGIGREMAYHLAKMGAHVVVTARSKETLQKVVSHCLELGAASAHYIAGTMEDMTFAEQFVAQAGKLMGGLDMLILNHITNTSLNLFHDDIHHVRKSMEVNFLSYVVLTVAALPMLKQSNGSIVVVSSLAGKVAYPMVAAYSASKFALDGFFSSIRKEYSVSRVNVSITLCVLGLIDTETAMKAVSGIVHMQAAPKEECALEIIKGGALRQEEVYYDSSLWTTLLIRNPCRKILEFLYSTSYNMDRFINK
Description: Compounds were assessed by a Scintillation Proximity Assay (SPA) performed according to the following protocol:
HEK293 cells were stably transfected with a construct containing the full-length gene coding for the human 11β-HSD1 enzyme to create HEK293/11β-HSD1 cells. Cells were routinely cultured in DMEM containing 10% calf foetal serum, 1% glutamine, and 1% penicillin and streptomycin. Prior to assay, cells were plated at 2×10^4 cells/well in 96-well poly-D-Lys coated flat-bottomed microplates and incubated in 5% CO2, 95% O2 at 37° C. for 24 hours. The media in each well was removed immediately before assay.
Compounds to be tested were dissolved in DMSO at 10 mM and serially diluted into water containing 10% DMSO. Diluted compounds at a volume of 10 μL were added to wells of a 96-well V-bottomed microplate. A solution of DMEM, 1% glutamine, 1% penicillin and streptomycin, and 22 nM tritiated cortisone was prepared and 90 μL added to each well of the assay plate. This solution (100 μL/well) was transferred to the plate containing the cells. The plate was then incubated in 5% CO2, 95% O2 at 37° C. for 2 hours.
Following this incubation, 50 μL of the assay solution was transferred to each well of a 96-well scintillation microplate. A mixture consisting of anti-mouse YSi SPA beads, pre-mixed with anti-cortisol antibody in assay buffer (50 mM Tris.HCl, pH 7.0; 300 mM NaCl; 1 mM EDTA, 5% glycerol) was prepared and 50 μL added to each well of the scintillation microplate. An adhesive strip was applied to the microplate and the plate gently shaken for at least 2 hours at room temperature, and then spun briefly on a low speed centrifuge. The plate was read on a scintillation counter suitable for 96-well microplates. For the calculation of percentage inhibition, a series of wells were added to the plate that represented the assay maximum and the assay minimum: one set that contained substrate without cells (minimum) and another set that contained substrate and cells without any compound (maximum).
The calculation of median inhibitory concentration (IC50) values for the compounds was performed using GraphPad Prism® software. Dose-response curves for each compound were plotted as fractional inhibition and data fitted to the four parameter logistic equation.

[2] = In vitro human liver microsomal stability assay; format: in vitro ADME; details: human liver microsomes
Description: To predict in vivo metabolism of compounds, the stability of compounds incubated with human liver microsomes in vitro was determined. Human liver microsome preparations were stored at −80° C. and thawed on ice prior to use. The thawed microsomes were diluted to a concentration of 2 mg/mL in 50 mM sodium phosphate, pH 7.4. Reference and test compounds were prepared as 10 mM stocks in 100% DMSO and diluted to 1 mM in acetonitrile before use. Each compound was tested in triplicate as follows:
4 μL of test or reference compound was added to a well of a 24-well microplate and 0.5 mL of 4 mM NADPH added. The plate was then transferred to a shaker for 10 minutes at room temperature. 30 μL of the compound/NADPH solution was transferred to the well of a 96-well microplate and incubated at 37° C. for 5 minutes. 30 μL of human liver microsomes (pre-incubated at 37° C. for 5 minutes) was added to the well containing the compound/NADPH solution and the plate incubated for the selected period of time (typically 0 or 30 minutes). The reaction was stopped by adding 60 μL of ice cold […] trichloroacetic acid. The plate was centrifuged at 1000 rpm for 5 minutes at room temperature and the supernatant transferred to the well of a new 96-well V-bottomed microplate for mass spectrometric analysis.
Samples were analyzed by TSQ Quantum Discovery Tandem Mass Spectrometer and Surveyor Liquid Chromatogram (Thermo, Hemel-Hempstead, UK). 10 μL of each sample was injected in a mobile phase consisting of 60%:40% methanol:5 mM ammonium acetate at a flow rate of 0.5 mL/minute. The column used was a BDS hypersil, C18, 50×2.1 mm with a 5 μm particle size.
Each compound was tuned with a spray voltage of 3000 V and a capillary temperature of 300° C. and values for tube lens, CID and product ions were determined.
The peak area for each compound was measured in triplicate for the 0 and 30 minute samples and the average of each was reported. The percentage remaining after 30 minutes was calculated as the average peak area of the sample after 30 minutes divided by the average peak area at 0 minutes. The RSD was 10% or lower for each compound.

IC50 ([1]; μM) [µM] | Structure (SMILES) | IC50 [1] [µM] | % Parent Remaining at 30 min [2]
– | N#CC1(c2ncccn2)CC2CCC(C1)N2C(=O)c1csc(-c2cn[nH]c2)c1 (stereo not shown) [XX-26] | ≤ 0.1 | –
– | O=C(c1csc(-c2cn[nH]c2)c1)N1C2CCC1CC(O)(c1cccnn1)C2 (stereo not shown) [XX-27] | ≤ 0.1 | +++ (61-100% +++)
– | Cc1csc(C2(O)CC3CCC(C2)N3C(=O)c2csc(-c3cn[nH]c3)c2)n1 (stereo not shown) [XX-30] | 0.1 to 0.5 | –
– | Cc1cnc(C2(O)CC3CCC(C2)N3C(=O)c2csc(-c3cn[nH]c3)c2)s1 (stereo not shown) [XX-32] | ≤ 0.1 | –
– | N#CC1(c2nccs2)CC2CCC(C1)N2C(=O)c1csc(-c2cn[nH]c2)c1 (stereo not shown) [XX-35] | ≤ 0.1 | ++ (31-60% ++)
– | O=C(c1csc(-c2cn[nH]c2)c1)N1C2CCC1CC(O)(c1ncco1)C2 (stereo not shown) [XX-37] | ≤ 0.1 | +++ (61-100% +++)
– | Cn1nccc1C1(O)CC2CCC(C1)N2C(=O)c1csc(-c2cn[nH]c2)c1 (stereo not shown) [XX-39] | 0.1 to 0.5 | –
– | O=C(c1csc(-c2cn[nH]c2)c1)N1C2CCC1CC(O)(c1nc3ccccc3s1)C2 (stereo not shown) [XX-40] | 0.1 to 0.5 | –
– | O=C(c1csc(-c2cn[nH]c2)c1)N1C2CCC1CC(F)(c1ncccc1F)C2 (stereo not shown) [XX-41] | ≤ 0.1 | –
0.5 to 10 | O=C(c1csc(-c2cn[nH]c2)c1)N1CCC(O)(c2ccccn2)CC1 [YY-01] | – | –
– | O=C(c1csc(-c2cn[nH]c2)c1)N1CCC(O)(c2ncc(Cl)cc2Cl)CC1 [YY-03] | 0.1 to 0.5 | –
– | O=C(c1csc(-c2cn[nH]c2)c1)N1CCC(O)(c2ncccc2C(F)(F)F)CC1 [YY-04] | 0.1 to 0.5 | –
– | CCc1ccc(Cl)c(C2(O)CCN(C(=O)c3csc(-c4cn[nH]c4)c3)CC2)n1 [YY-05] | 0.1 to 0.5 | –
– | O=C(c1csc(-c2cn[nH]c2)c1)N1CCC(O)(c2ccncc2F)CC1 [YY-07] | 0.1 to 0.5 | +++ (61-100% +++)
0.5 to 10 | O=C(c1csc(-c2cn[nH]c2)c1)N1CCC(O)(c2ncccc2F)CC1 [YY-08] | – | –
– | O=C(c1csc(-c2cn[nH]c2)c1)N1CCC(F)(c2ncccc2Cl)CC1 [YY-09] | 0.1 to 0.5 | +++ (61-100% +++)
0.5 to 10 | O=C(c1csc(-c2cn[nH]c2)c1)N1CCC(O)(c2ncccn2)CC1 [YY-10] | – | –
0.5 to 10 | O=C(c1csc(-c2cn[nH]c2)c1)N1CCC(F)(c2ncccn2)CC1 [YY-11] | – | –

Structure (SMILES) | IC50 ([1]; μM) [µM] | IC50 [1] [µM] | % Parent Remaining at 30 min [2]
O=C(c1csc(-c2cn[nH]c2)c1)N1C2CCC1CC(O)(c1cccnn1)C2 (stereo not shown) [XX-28] | 0.5 to 10 | – | –
Cn1ccnc1C1(O)CC2CCC(C1)N2C(=O)c1csc(-c2cn[nH]c2)c1 (stereo not shown) [XX-38] | 0.5 to 10 | – | –
